# Laboratory results as given in patent US11286268B1, “EIF4E-inhibiting compounds and methods” (EFFECTOR THERAPEUTICS, INC., priority 2019, dated 2022).
# Read-outs that look alike come from different tables or passages of the source.
# Biological target: recombinant eIF4E (Homo sapiens (Human), UniProt P06730)
# Experiment: Fluorescence polarization competition assay for eIF4E binding potency
# Experimental: Compounds were screened for eIF4E binding potency using a fluorescence polarization competition assay. All binding reactions were performed in fluorescence polarization buffer (FPB) containing 20 mM Tris pH 7.5, 100 mM NaCl, 1 mM DTT, and 0.02% Tween-20. Final binding reactions contained 75 nM recombinant eIF4E (Beryllium, custom order), 20 nM EDA-m^7GDP-ATTO-550 (Jena Bioscience, NU-827-550) and varying concentrations of the inhibitory compound of interest. Final DMSO concentration in each reaction was 1%.
# eIF4E protein was pre-incubated with EDA-m^7GDP-ATTO-550 in FPB at 2× concentrations for 5 minutes prior to the addition of compounds. Compounds (100×) were prepared using 3-fold serial dilutions in 100% DMSO, and subsequently diluted 1:50 in FPB to produce 2× stocks. 50 μl of 2× eIF4E/EDA-m^7GDP-ATTO-550 were transferred to the wells of a 96-well half-area black flat bottom polystyrene plate. 50 μl of 2× test compound were added, and binding reactions were allowed to equilibrate for 30 minutes at room temperature while protected from light. The fluorescent polarization signal was detected using a Victor 2 multi-label counter (Perkin Elmer) and the concentration necessary to achieve inhibition of eIF4E/EDA-m^7GDP-ATTO-550 binding by 50% (IC50) was calculated using data from an 8-point compound dilution series.
# In Table 4A, IC50 values of less than 0.05 μM are labelled as “+++”, from 1 to 0.05 μM are labelled as “++”, and greater than 1 μM are labelled as “+”. ND=not determined.
# [1] = fluorescence polarization competition, 75 nM recombinant eIF4E, 20 nM EDA-m7GDP-ATTO-550, IC50 class, read-out: elF4E FP
# [2] = inhibition of eIF4E/EDA-m7GDP-ATTO-550 binding by 50%, Table 4B calculated values, read-out: IC50
# Chain of recombinant eIF4E (P06730 whole entry): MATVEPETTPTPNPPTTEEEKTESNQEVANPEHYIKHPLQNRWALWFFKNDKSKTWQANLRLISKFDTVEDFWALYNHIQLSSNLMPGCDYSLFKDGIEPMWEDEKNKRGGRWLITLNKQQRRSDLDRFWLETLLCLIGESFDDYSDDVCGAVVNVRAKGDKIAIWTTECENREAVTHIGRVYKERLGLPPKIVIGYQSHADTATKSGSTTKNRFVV
Structure (SMILES),IC50 [1] [nM],IC50 [2] [nM]
Cc1nc2cc(C(F)(F)F)cc(C#N)c2c(=O)n1CCOc1ccc(Cl)cc1-c1cccc(C(=O)O)c1 [compound 51],< 50,21.3
N#Cc1cc2c(=O)n(CCOc3ccc(Cl)cc3-c3ncc(C(=O)O)s3)cnc2cn1 [compound 52],> 1000,> 3000
N#Cc1cc2c(=O)n(CCOc3ccc(Cl)cc3-c3ccc(C(=O)O)s3)cnc2cn1 [compound 53],50 to 1000,931
N#Cc1cc2c(=O)n(CCOc3ccc(Cl)cc3-c3cnc(C(=O)O)s3)cnc2cn1 [compound 54],> 1000,2280
C#Cc1c(C(=O)O)cccc1-c1cc(Cl)ccc1OCCn1c(C)nc2ccc(C(F)F)c(C#N)c2c1=O [compound 55],< 50,21.6
C#Cc1c(-c2cc(Cl)ccc2OCCn2c(C)nc3ccc(C(F)F)c(C#N)c3c2=O)ccnc1C(=O)O [compound 57],< 50,12.8
C#Cc1c(-c2cc(Cl)ccc2OCCn2c(C)nc3cc(C(F)(F)F)cc(C#N)c3c2=O)ccnc1C(=O)O [compound 58],50 to 1000,50.2
Cc1nc2cc(C(F)(F)F)c(C(F)F)c(C#N)c2c(=O)n1CCOc1ccc(Cl)cc1-c1cccc(C(=O)O)c1 [compound 59],< 50,21.5
Cc1nc2cc(C(F)(F)F)cc(C#N)c2c(=O)n1CCOc1ccc(Cl)cc1-c1ccnc(C(=O)O)c1 [compound 60],< 50,–
Cc1nc2cc(C(F)(F)F)cc(C#N)c2c(=O)n1CCOc1ccc(Cl)cc1-c1ccnc2c(C(=O)O)csc12 [compound 61],< 50,26.5
Cc1nc2ccc(C(F)F)c(C#N)c2c(=O)n1CCOc1ccc(Cl)cc1-c1cccc(C(=O)O)c1 [compound 62],< 50,24.9
Cc1nc2cc(C#N)c(C(F)F)c(C#N)c2c(=O)n1CCOc1ccc(Cl)cc1-c1cccc(C(=O)O)c1 [compound 63],< 50,25.8
Cc1nc2cc(C(F)F)c(C(F)F)c(C#N)c2c(=O)n1CCOc1ccc(Cl)cc1-c1cccc(C(=O)O)c1 [compound 64],50 to 1000,62.5
N#Cc1cc(C(F)(F)F)cc2nc(C(F)F)n(CCOc3ccc(Cl)cc3-c3ccnc4c(C(=O)O)csc34)c(=O)c12 [compound 65],< 50,24.1
N#Cc1cc2c(=O)n(CCOc3ccc(Cl)cc3-c3cccc(C(=O)O)c3)cnc2cn1 [compound 66],50 to 1000,187
Cn1ccc2c(=O)n(CCOc3ccc(Cl)cc3-c3cccc(C(=O)O)c3)cnc21 [compound 68],> 1000,64300
Cn1ccc2ncn(CCOc3ccc(Cl)cc3-c3cccc(C(=O)O)c3)c(=O)c21 [compound 69],> 1000,26800
CCc1nc2cnccc2c(=O)n1CCOc1ccc(Cl)cc1-c1cccc(C(=O)O)c1 [compound 70],50 to 1000,432
Cc1nc2ccccc2c(=O)n1CCOc1ccc(Cl)cc1-c1cccc(C(=O)O)c1 [compound 72],> 1000,3100

Structure (SMILES),IC50 [1] [nM],IC50 [2] [nM]
N#Cc1cccc2ncn(CCOc3ccc(Cl)cc3-c3cccc(C(=O)O)c3)c(=O)c12 [compound 73],50 to 1000,83.2
N#Cc1ccc2ncn(CCOc3ccc(Cl)cc3-c3cccc(C(=O)O)c3)c(=O)c2c1 [compound 74],50 to 1000,423
N#Cc1cccc2c(=O)n(CCOc3ccc(Cl)cc3-c3cccc(C(=O)O)c3)cnc12 [compound 75],> 1000,1400
O=C(O)c1cccc(-c2cc(Cl)ccc2OCCn2cnc3c(F)cccc3c2=O)c1 [compound 76],> 1000,2300
O=C(O)c1cccc(-c2cc(Cl)ccc2OCCn2cnc3cc(F)c(F)cc3c2=O)c1 [compound 77],> 1000,1440
O=C(O)c1cccc(-c2cc(Cl)ccc2OCCn2cnc3cc(F)cc(F)c3c2=O)c1 [compound 78],> 1000,1630
N#Cc1cc2c(=O)n(CCOc3ccc(Cl)cc3-c3ccc(C(=O)O)o3)cnc2cn1 [compound 79],> 1000,1650
N#Cc1cc2c(=O)n(CCOc3ccc(Cl)cc3-c3csc(C(=O)O)c3)cnc2cn1 [compound 80],50 to 1000,110
N#Cc1cc2c(=O)n(CCOc3ccc(Cl)cc3-c3nc(C(=O)O)cs3)cnc2cn1 [compound 81],> 1000,4220
Cn1cc(-c2cc(Cl)ccc2OCCn2cnc3cnc(C#N)cc3c2=O)cc1C(=O)O [compound 82],> 1000,1660
N#Cc1cc2c(=O)n(CCOc3ccc(Cl)cc3-c3cc(C(=O)O)cs3)cnc2cn1 [compound 83],> 1000,2560
Cn1nc(C(=O)O)cc1-c1cc(Cl)ccc1OCCn1cnc2cnc(C#N)cc2c1=O [compound 84],> 1000,1250
N#Cc1cc2c(=O)n(CCOc3ccc(Cl)cc3-c3cncc(C(=O)O)n3)cnc2cn1 [compound 85],> 1000,1850
N#Cc1cc2c(=O)n(CCOc3ccc(Cl)cc3-c3cc(C(=O)O)c(F)cc3F)cnc2cn1 [compound 86],> 1000,49700
COc1cc(-c2cc(Cl)ccc2OCCn2cnc3cnc(C#N)cc3c2=O)cc(C(=O)O)n1 [compound 87],> 1000,1160
CNc1ncc(-c2cc(Cl)ccc2OCCn2cnc3cnc(C#N)cc3c2=O)nc1C(=O)O [compound 88],> 1000,1680
N#Cc1cc2c(=O)n(CCOc3ccc(Cl)cc3-c3cc(C(=O)O)cc(F)c3F)cnc2cn1 [compound 89],> 1000,> 3000
COc1ncc(-c2cc(Cl)ccc2OCCn2cnc3cnc(C#N)cc3c2=O)nc1C(=O)O [compound 90],> 1000,1230
N#Cc1cc2c(=O)n(CCOc3ccc(Cl)cc3-c3ccc(F)c(C(=O)O)c3F)cnc2cn1 [compound 91],50 to 1000,287

Structure (SMILES),IC50 [1] [nM],IC50 [2] [nM]
N#Cc1cc2c(=O)n(CCOc3ccc(Cl)cc3-c3cc(C(=O)O)ccc3C3CC3)cnc2cn1 [compound 92],> 1000,> 3000
N#Cc1cc(C(=O)O)cc(-c2cc(Cl)ccc2OCCn2cnc3cnc(C#N)cc3c2=O)c1 [compound 93],> 1000,1400
N#Cc1cc2c(=O)n(CCOc3ccc(Cl)cc3-c3ccc(C#N)c(C(=O)O)c3)cnc2cn1 [compound 94],> 1000,1420
CSc1cc(C(=O)O)cc(-c2cc(Cl)ccc2OCCn2cnc3cnc(C#N)cc3c2=O)c1 [compound 95],> 1000,2860
N#Cc1cc2c(=O)n(CCOc3ccc(Cl)cc3-c3cc4c(c(C(=O)O)c3)OCO4)cnc2cn1 [compound 96],> 1000,2100
COc1cc(F)c(C(=O)O)cc1-c1cc(Cl)ccc1OCCn1cnc2cnc(C#N)cc2c1=O [compound 97],> 1000,> 3000
CSc1ncc(-c2cc(Cl)ccc2OCCn2cnc3cnc(C#N)cc3c2=O)nc1C(=O)O [compound 98],50 to 1000,564
N#Cc1cc2c(=O)n(CCOc3ccc(Cl)cc3-c3cc(C(=O)O)c4ccccc4n3)cnc2cn1 [compound 99],> 1000,3420
N#Cc1cc2c(=O)n(CCOc3ccc(Cl)cc3-c3cc(C(=O)O)c4ncccc4c3)cnc2cn1 [compound 100],> 1000,3480
N#Cc1cc2c(=O)n(CCOc3ccc(Cl)cc3-c3cc(C(=O)O)c(F)c(F)c3F)cnc2cn1 [compound 101],> 1000,43800
Cn1cc2c(C(=O)O)cc(-c3cc(Cl)ccc3OCCn3cnc4cnc(C#N)cc4c3=O)cc2n1 [compound 102],> 1000,4820
CC(=O)Nc1ccc(-c2cc(Cl)ccc2OCCn2cnc3cnc(C#N)cc3c2=O)cc1C(=O)O [compound 103],50 to 1000,747
N#Cc1cc2c(=O)n(CCOc3ccc(Cl)cc3-c3cc4c(c(C(=O)O)c3)OCC4)cnc2cn1 [compound 104],50 to 1000,586
CC(C)(C)c1cc(C(=O)O)cc(-c2cc(Cl)ccc2OCCn2cnc3cnc(C#N)cc3c2=O)c1 [compound 105],> 1000,> 3000
N#Cc1cc2c(=O)n(CCOc3ccc(Cl)cc3-c3cc(CCO)cc(C(=O)O)c3)cnc2cn1 [compound 106],> 1000,1380
COc1cc(-c2cc(Cl)ccc2OCCn2cnc3cnc(C#N)cc3c2=O)cc(C(=O)O)c1OC [compound 107],> 1000,3820
COc1c(Cl)cc(-c2cc(Cl)ccc2OCCn2cnc3cnc(C#N)cc3c2=O)cc1C(=O)O [compound 108],> 1000,11200
N#Cc1cc2c(=O)n(CCOc3ccc(Cl)cc3-c3cnc(C(F)F)c(C(=O)O)c3)cnc2cn1 [compound 109],> 1000,19200
